According to PubChem BioAssay AID248 (DTP/NCI, 2004):
“And” between values parts separate entries of the source, which are not always exact repeats. Equal values may be shown once. Toxic doses and inconclusive results are not listed. No stated cut-off is given here; in the data, active means T/C of 150% or more; inactive means T/C below 125%.

Tested on: L1210 leukemia ip in BDF1 mice, survival T/C
Test: NCI In Vivo Anticancer Drug Screen. Data for tumor model L1210 Leukemia (intraperitoneal) in B6D2F1 (BDF1) mice
Conditions: endpoint: mean survival time, higher = longer survival
Outline: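 Ratio derived from survival: compound-dosed mice over vehicle-dosed mice, all bearing a transplantable tumor.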

[1] = dose: 100.0 mg/kg/injection, schedule: Q01DX001 (ip), vehicle: Klucel (hydroxypropylcellulose) (HPC)
[2] = dose: 200.0 mg/kg/injection, schedule: Q01DX001 (ip), vehicle: Klucel (hydroxypropylcellulose) (HPC)
[3] = dose: 400.0 mg/kg/injection, schedule: Q01DX001 (ip), vehicle: Klucel (hydroxypropylcellulose) (HPC)
[4] = dose: 100.0 mg/kg/injection, schedule: Q01DX009 (ip), vehicle: Klucel (hydroxypropylcellulose) (HPC)
[5] = dose: 100.0 mg/kg/injection, schedule: Q04DX003 (ip), vehicle: Klucel (hydroxypropylcellulose) (HPC)
[6] = dose: 200.0 mg/kg/injection, schedule: Q01DX009 (ip), vehicle: Klucel (hydroxypropylcellulose) (HPC)
[7] = dose: 200.0 mg/kg/injection, schedule: Q04DX003 (ip), vehicle: Klucel (hydroxypropylcellulose) (HPC)
[8] = dose: 400.0 mg/kg/injection, schedule: Q01DX009 (ip), vehicle: Klucel (hydroxypropylcellulose) (HPC)
[9] = dose: 400.0 mg/kg/injection, schedule: Q04DX003 (ip), vehicle: Klucel (hydroxypropylcellulose) (HPC)
[10] = dose: 100.0 mg/kg/injection, schedule: Q04DX002 (ip), vehicle: Klucel (hydroxypropylcellulose) (HPC)
[11] = dose: 200.0 mg/kg/injection, schedule: Q04DX002 (ip), vehicle: Klucel (hydroxypropylcellulose) (HPC)
[12] = dose: 400.0 mg/kg/injection, schedule: Q04DX002 (ip), vehicle: Klucel (hydroxypropylcellulose) (HPC)
[13] = dose: 100.0 mg/kg/injection, schedule: Q01DX001 (ip), vehicle: saline
[14] = dose: 200.0 mg/kg/injection, schedule: Q01DX001 (ip), vehicle: saline
[15] = dose: 400.0 mg/kg/injection, schedule: Q01DX001 (ip), vehicle: saline
[16] = dose: 25.0 mg/kg/injection, schedule: Q04DX003 (ip), vehicle: Klucel (hydroxypropylcellulose) (HPC)
[17] = dose: 50.0 mg/kg/injection, schedule: Q01DX009 (ip), vehicle: Klucel (hydroxypropylcellulose) (HPC)
[18] = dose: 50.0 mg/kg/injection, schedule: Q04DX003 (ip), vehicle: Klucel (hydroxypropylcellulose) (HPC)

Measured: T/C

Nc1nc(Cl)c(Br)c(=O)[nH]1
inactive: dose: 25.0 mg/kg/injection, schedule: Q01DX Z (ip), vehicle: methylcellulose (MC) 98 % of control | dose: 50.0 mg/kg/injection, schedule: Q01DX Z (ip), vehicle: methylcellulose (MC) 89 % of control

Nc1ncnc2nc(-c3cc(Cl)c(OCc4ccccc4)c(Cl)c3)[nH]c12
inactive: [1] 100 % of control | [2] 89 % of control | [3] 92 % of control

CC(C)OC(=O)c1cc(C(=O)OC(C)C)cc(S(N)(=O)=O)c1
inactive: dose: 100.0 mg/kg/injection, schedule: Q01DX001 (ip), vehicle: other 106 % of control | dose: 200.0 mg/kg/injection, schedule: Q01DX001 (ip), vehicle: other 98 % of control | dose: 400.0 mg/kg/injection, schedule: Q01DX001 (ip), vehicle: other 95 % of control

CC(=O)CC(=O)N1CCCC(C)C1 (centres undefined)
inactive: [4] 102 % of control | [5] 104 % of control | [6] 92 % of control | [7] 106 % of control | [8] 96 % of control | [9] 106 % of control

Cc1cccc(NC(=O)Nc2ccccc2Cl)c1C
inactive: [4] 94 % of control | [5] 95 % of control | [6] 92 % of control | [7] 110 % of control | [8] 96 % of control | [9] 96 % of control

c1cnc(OCCN2CC2)cn1
inactive: dose: 25.0 mg/kg/injection, schedule: Q01DX001 (ip), vehicle: saline 115 % of control | dose: 50.0 mg/kg/injection, schedule: Q01DX001 (ip), vehicle: saline 96 % of control

COc1cc(N(CCCl)CCCl)ccc1C=Nc1cc(Cl)ccc1-n1ccnc1
inactive: [10] 95 % of control | [11] 95 % of control | [12] 87 % of control

CNC(=O)NNC(=O)CNC(=O)Nc1cccc([N+](=O)[O-])c1
inactive: dose: 25.0 mg/kg/injection, schedule: Q01DX009 (ip), vehicle: saline with Tween-80 91 % of control | dose: 50.0 mg/kg/injection, schedule: Q01DX009 (ip), vehicle: saline with Tween-80 94 % of control

O=c1cccccc1O.O=c1cccccc1O.O=c1cccccc1O.[Cr]
inactive: dose: 75.0 mg/kg/injection, schedule: Q04DX003 (ip), vehicle: saline 100 % of control | dose: 150.0 mg/kg/injection, schedule: Q04DX003 (ip), vehicle: saline 104 % of control | dose: 300.0 mg/kg/injection, schedule: Q04DX003 (ip), vehicle: saline 90 % of control

CN1C2CCC1CC(OC(=O)C(CO)c1ccccc1)C2 (centres undefined)
inactive: dose: 31.25 mg/kg/injection, schedule: Q01DX Z (ip), vehicle: saline 100 % of control | dose: 62.5 mg/kg/injection, schedule: Q01DX Z (ip), vehicle: saline 102 % of control | dose: 125.0 mg/kg/injection, schedule: Q01DX Z (ip), vehicle: saline 98 % of control

CC(C)OC(=O)Nc1ccc(Br)cc1
inactive: [10] 88 % of control | [11] 95 % of control

O=C(COc1ccc(Br)cc1Br)OCCBr
inactive: [13] 97 % of control | [14] 105 % of control | [15] 100 % of control

c1ccc([Si]2(c3ccccc3)O[Si](c3ccccc3)(c3ccccc3)O[Si](c3ccccc3)(c3ccccc3)O2)cc1
inactive: dose: 75.0 mg/kg/injection, schedule: Q01DX001 (ip), vehicle: saline 93 % of control | dose: 150.0 mg/kg/injection, schedule: Q01DX001 (ip), vehicle: saline 87 % of control

Cc1cc(N(CCCl)CCCl)ccc1C=Nc1ccc2c(c1)nc(C)n2C
inactive: [10] 93 % of control | [11] 112 % of control | [12] 97 % of control

O=[N+]([O-])c1cccc(C=Nc2cc(Cl)ccc2Cl)c1
inactive: dose: 75.0 mg/kg/injection, schedule: Q04DX003 (ip), vehicle: Klucel (hydroxypropylcellulose) (HPC) 106 % of control | [1] 101 % of control | dose: 150.0 mg/kg/injection, schedule: Q04DX003 (ip), vehicle: Klucel (hydroxypropylcellulose) (HPC) 95 % of control | [2] 107 % of control | dose: 300.0 mg/kg/injection, schedule: Q04DX003 (ip), vehicle: Klucel (hydroxypropylcellulose) (HPC) 98 % of control | [3] 102 % of control

NC(N)=Nc1ccc(C(=O)Oc2ccc([N+](=O)[O-])cc2[N+](=O)[O-])cc1
inactive: [16] 96 % of control | [17] 94 % of control | [18] 98 % of control | [4] 94 % of control | [5] 91 % of control

O=C1CN=C(c2ccccc2Cl)c2cc(Cl)ccc2N1
inactive: dose: 12.5 mg/kg/injection, schedule: Q01DX009 (ip), vehicle: Klucel (hydroxypropylcellulose) (HPC) 114 % of control | dose: 25.0 mg/kg/injection, schedule: Q01DX009 (ip), vehicle: Klucel (hydroxypropylcellulose) (HPC) 95 % of control | [16] 100 % of control | [17] 106 % of control | [18] 105 % of control | [4] 97 % of control | [5] 100 % of control | [6] 103 % of control | [7] 120 % of control

COC(=O)c1c(OC)ccc2c1CC1C3Nc4ccccc4C3CCN1C2 (centres undefined)
inactive: [5] 94 % of control | [7] 90 % of control | [9] 90 % of control

CCC(C(C)C)C(Br)C(Br)C(C)C1CCC2C3CC=C4CC(OC(C)=O)CCC4(C)C3CCC12C (centres undefined)
inactive: [6] 91 % of control | [8] 96 % of control

CC(=O)CC(=O)Nc1ccc(Cc2ccc(NC(=O)CC(C)=O)c(C)c2)cc1C
inactive: [13] 88 % of control | [14] 94 % of control | [15] 94 % of control

NC(=O)c1cccn1-c1ccc2ncccc2c1
inactive: dose: 25.0 mg/kg/injection, schedule: Q04DX002 (ip), vehicle: Klucel (hydroxypropylcellulose) (HPC) 89 % of control | dose: 50.0 mg/kg/injection, schedule: Q04DX002 (ip), vehicle: Klucel (hydroxypropylcellulose) (HPC) 92 % of control | [10] 86 % of control

Cc1cc(C)c(N)c(C)n1
inactive: dose: 12.5 mg/kg/injection, schedule: Q04DX003 (ip), vehicle: Klucel (hydroxypropylcellulose) (HPC) 95 % of control | [16] 97 % of control | [18] 93 % of control

CC(=O)Oc1cccc([N+](=O)[O-])c1
inactive: [10] 107 % of control | [11] 100 % of control | [12] 92 % of control

OCC1(CO)CC=CCC1
inactive: dose: 25.0 mg/kg/injection, schedule: Q04DX003 (ip), vehicle: saline 95 % of control | dose: 50.0 mg/kg/injection, schedule: Q04DX003 (ip), vehicle: saline 105 % of control | dose: 100.0 mg/kg/injection, schedule: Q01DX001 (ip), vehicle: carboxymethylcellulose (CMC) 103 % of control | dose: 100.0 mg/kg/injection, schedule: Q04DX003 (ip), vehicle: saline 94 % of control and 89 % of control | dose: 200.0 mg/kg/injection, schedule: Q01DX001 (ip), vehicle: carboxymethylcellulose (CMC) 95 % of control | dose: 400.0 mg/kg/injection, schedule: Q01DX001 (ip), vehicle: carboxymethylcellulose (CMC) 103 % of control

O=P(CCCc1ccccc1)(CCCc1ccccc1)Oc1cccc(C(F)(F)F)c1
inactive: dose: 100.0 mg/kg/injection, schedule: Q04DX003 (ip), vehicle: saline with Tween-80 90 % of control | dose: 200.0 mg/kg/injection, schedule: Q04DX003 (ip), vehicle: saline with Tween-80 92 % of control | dose: 400.0 mg/kg/injection, schedule: Q04DX003 (ip), vehicle: saline with Tween-80 101 % of control
